Measured values: patent US11065209B2, “Use of cannabidiol in the treatment of epilepsy” (GW Research Limited, priority 2015, dated 2021)
“And” between values parts separate entries of the source, which are not always exact repeats. Equal entries are not always repeated. “Also recorded” adds a separate entry of the source.

What was measured:
[1] = test system: seizures in patients with Tuberous Sclerosis Complex (TSC); assay: Expanded access compassionate use program: CBD added to baseline AED in children and young adults with treatment-resistant Tuberous Sclerosis Complex, seizure diaries; type: in vivo, human
Protocol: The terms “50% responder” and “50% reduction in seizure” are both terms used in clinical studies. In the present application the terms define the percentage of subjects that experienced a greater than or equal to 50% reduction in the total number of seizures during treatment with CBD in comparison to the number experienced during the baseline period before the CBD was administered.
These subjects were tested with a highly purified extract of cannabidiol (CBD) obtained from a cannabis plant. The participants in the study were part of an expanded access compassionate use program for CBD.
All of these patients diagnosed with TSC presented with one or more types of seizure including tonic, tonic-clonic, atonic, absence, focal seizures with impairment and focal seizures which evolve to secondary generalised seizures.
All patients entered a baseline period of 4 weeks when parents/caregivers kept prospective seizure diaries, noting all countable seizure types.
The patients then received a highly purified CBD extract (greater than 98% CBD w/w) in sesame oil, of known and constant composition, at a dose of 5 mg/kg/day in addition to their baseline anti-epileptic drug (AED) regimen.
Laboratory testing for hematologic, liver, kidney function, and concomitant AED levels was performed at baseline, and after CBD therapy.
All patients were taking at least two concomitant anti-epileptic drugs. These included clobazam; diazepam; lacosamide; lamotrigine; levetiracetam; lorazepam; nordiazepam; n-desmethylclobazam; phenytoin; valproic acid; zonisamide. The average number of concomitant antiepileptic drugs being taken was 2.7. The majority took either clobazam and/or valproic acid.
There were 12 children and young adult patients who received at least 3 months of treatment all of whom suffered from treatment-resistant epilepsy with a diagnosis of Tuberous Sclerosis Complex (TSC).

[2] = test system: seizures in mice; settings: after pro-convulsant drugs or an electric current; cited from earlier work
[3] = test system: seizures in institutionalized adult patients; settings: 200 mg/day of pure CBD; twelve institutionalized adult patients; open label; cited from earlier work
[4] = test system: seizures in a child with Lennox-Gastaut syndrome; settings: CBD in an oily solution; cited from earlier work
[5] = test system: seizures in adult patients with generalized epilepsy; settings: eight adult patients with generalized epilepsy; cited from earlier work
[6] = Solubility of the drug substance in water; type: physicochemical
Excerpt: The drug substance, CBD is insoluble in water. Sesame oil was selected as an excipient to solubilize the drug substance.

[7] = test system: seizures in adult patients; settings: 200 mg/day of pure CBD; four adult patients; cited from earlier work
[8] = test system: seizures; settings: as described in the literature; cited from earlier work
[9] = share of patients, n = 2, after 12 weeks of treatment
[10] = share of patients, n = 3, after 12 weeks of treatment
[11] = share of patients, n = 5, after 12 weeks of treatment
[12] = share of patients, n = 10, after 12 weeks of treatment
[13] = share of patients, n = 14, after 12 weeks of treatment

Q: Which results are given for C=C(C)[C@@H]1CCC(C)=C[C@H]1c1c(O)cc(CCCCC)cc1O [CBD, cannabidiol]?
A: patients with at least a fifty percent reduction in the total number of seizures ([1]; TSC patients resistant to existing AED): half of the patients; patients treated in whom total seizure frequency was reduced ([1]; TSC patients, 12 treated): over 80%; effect on incidence of generalised seizure types tonic, atonic, tonic-clonic and absence seizures ([1]; TSC patients, result in words): dramatically reduce; also recorded: virtually eliminate; effect on the number of focal seizures with impairment ([1]; TSC patients, result in words): markedly reduced; TSC patients with a decrease in total seizure frequency ([1]; after 3 months of therapy, 12 patients): ten out of 12; >50% reduction in seizures (total number of seizures) ([1]; individual TSC subjects 1-12, after 12 weeks treatment): Yes (6×) and No (6×); Change in baseline (%) for total number of seizures ([1]; individual TSC subjects 1-12, after 12 weeks treatment, CBD 5 up to 25 mg/kg/day added to AED): −93.7% and −15.0% and −71.0% and −33.5% and −80.2% and 0.4% and −100.0% and −9.8% and −74.4% and 108.0% and −39.2% and −63.2%; TSC patients with a greater than 50% reduction in total seizures ([1]; over the 12 weeks of treatment, 12 patients): six of the 12; effect on the number of seizures ([1]; patients that do not respond well to existing AED, result in words): significantly reduces; <50% reduction in seizures, absence seizures [1, 9]: 0%; <50% reduction in seizures, focal seizures evolving to secondary generalisation [1, 9]: 50%; <50% reduction in seizures, tonic-clonic seizures [1, 9]: 0%; >50% reduction in seizures, absence seizures [1, 9]: 100%; >50% reduction in seizures, focal seizures evolving to secondary generalisation [1, 9]: 50%; >50% reduction in seizures, tonic-clonic seizures [1, 9]: 100%; <50% reduction in seizures, atonic seizures [1, 10]: 0%; >50% reduction in seizures, atonic seizures [1, 10]: 100%; <50% reduction in seizures, tonic seizures [1, 11]: 25%; >50% reduction in seizures, tonic seizures [1, 11]: 75%; <50% reduction in seizures, focal seizures with impairment [1, 12]: 45%; >50% reduction in seizures, focal seizures with impairment [1, 12]: 55%; <50% reduction in seizures, total focal seizures [1, 13]: 55%; >50% reduction in seizures, total focal seizures [1, 13]: 45%; average reduction in the total number of seizures in the responders ([1]; the patients with at least 50% reduction, 12 weeks of treatment): 80.4% and 80%; prevention of seizures [2]: able to prevent seizures; controlling seizures [3]: ineffective; seizure frequency [4]: improvement; patients with a marked reduction of seizures [5]: 4; solubility in water [6]: insoluble; patients who became seizure free [7]: two of the four

Q: For CCCCCc1cc(O)c2c(c1)OC(C)(C)[C@@H]1CCC(C)=C[C@@H]21 [THC, tetrahydrocannabinol], which effect on seizures [8] is on record?
A: Its effect on seizures is “pro-convulsant”.
